Laboratory results from patent publication US20210115040A1, “OGA INHIBITOR COMPOUNDS” (Janssen Pharmaceutica NV, priority 2018, published 2021).

Experiments:
OGA = biological target: T1, OGA (Homo sapiens, UniProt O60502); assay: OGA cellular assay (ICC detection of O-GlcNAcylated proteins in HEK293 cells inducible for P301L mutant human Tau); type: cell-based; conditions: for EC50 / Cellular Emax (%): HEK293 cells inducible for P301L mutant human Tau; for EC50: 6 hours incubation, read-out: Cellular hOGA, pEC50 (converted); for Cellular Emax (%) / Emax: maximum = Thiamet G 200 uM; for Emax: HEK293, HEK293 cells inducible for P301L mutant human Tau
T1 construct: HEK293 cells inducible for P301L mutant human Tau (isoform 2N4R) were established at Janssen; endogenous in cells; host or cells: HEK293 cells inducible for P301L mutant human Tau (2N4R)
T1 sequence (O60502 1-916): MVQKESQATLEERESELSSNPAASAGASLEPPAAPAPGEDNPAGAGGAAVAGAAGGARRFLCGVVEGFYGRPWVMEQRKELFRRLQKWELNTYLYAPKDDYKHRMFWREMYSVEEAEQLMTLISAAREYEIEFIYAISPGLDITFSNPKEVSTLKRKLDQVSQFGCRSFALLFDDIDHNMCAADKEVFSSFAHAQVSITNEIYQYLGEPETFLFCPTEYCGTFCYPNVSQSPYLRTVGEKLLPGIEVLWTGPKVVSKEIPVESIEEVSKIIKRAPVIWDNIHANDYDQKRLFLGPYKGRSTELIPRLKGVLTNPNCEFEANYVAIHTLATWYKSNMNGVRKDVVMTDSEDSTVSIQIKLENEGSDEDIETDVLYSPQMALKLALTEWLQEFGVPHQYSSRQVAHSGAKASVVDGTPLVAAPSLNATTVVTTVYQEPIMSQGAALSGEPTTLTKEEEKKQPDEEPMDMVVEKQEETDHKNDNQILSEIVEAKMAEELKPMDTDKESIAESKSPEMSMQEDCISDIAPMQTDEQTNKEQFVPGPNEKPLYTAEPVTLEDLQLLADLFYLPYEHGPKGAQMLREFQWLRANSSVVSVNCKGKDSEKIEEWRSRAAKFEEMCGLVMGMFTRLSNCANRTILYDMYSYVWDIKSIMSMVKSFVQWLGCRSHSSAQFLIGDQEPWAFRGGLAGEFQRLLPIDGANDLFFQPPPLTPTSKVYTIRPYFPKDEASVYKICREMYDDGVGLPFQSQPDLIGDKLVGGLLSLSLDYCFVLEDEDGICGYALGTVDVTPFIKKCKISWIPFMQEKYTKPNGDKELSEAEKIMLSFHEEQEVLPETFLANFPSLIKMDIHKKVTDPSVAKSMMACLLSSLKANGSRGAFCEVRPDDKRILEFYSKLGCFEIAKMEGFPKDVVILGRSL
Experimental: HEK293 cells inducible for P301L mutant human Tau (isoform 2N4R) were established at Janssen. Thiamet-G was used for both plate validation (high control) and as reference compound (reference EC50 assay validation). OGA inhibition is evaluated through the immunocytochemical (ICC) detection of O-GlcNAcylated proteins by the use of a monoclonal antibody (CTD110.6; Cell Signaling, #9875) detecting 0-GlcNAcylated residues as previously described (Dorfmueller et al. 2010 Chemistry & biology, 17:1250). Inhibition of OGA will result in an increase of O-GlcNAcylated protein levels resulting in an increased signal in the experiment. Cell nuclei are stained with Hoechst to give a cell culture quality control and a rough estimate of immediate compounds toxicity, if any. ICC pictures are imaged with a Perkin Elmer Opera Phenix plate microscope and quantified with the provided software Perkin Elmer Harmony 4.1.
Cells were propagated in DMEM high Glucose (Sigma, #D5796) following standard procedures. 2 days before the cell assay cells are split, counted and seeded in Poly-D-Lysine (PDL) coated 96-wells (Greiner, #655946) plate at a cell density of 12,000 cells per cm^2 (4,000 cells per well) in 100 μl of Assay Medium (Low Glucose medium is used to reduce basal levels of GlcNAcylation) (Park et al. 2014 The Journal of biological chemistry 289:13519). At the day of compound test medium from assay plates was removed and replenished with 90 μl of fresh Assay Medium. 10 μl of compounds at a 10fold final concentration were added to the wells. Plates were centrifuged shortly before incubation in the cell incubator for 6 hours. DMSO concentration was set to 0.2%. Medium is discarded by applying vacuum. For staining of cells medium was removed and cells washed once with 100 μl D-PBS (Sigma, #D8537). From next step onwards unless other stated assay volume was always 50 μl and incubation was performed without agitation and at room temperature. Cells were fixed in 50 μl of a 4% paraformaldehyde (PFA, Alpha aesar, #043368) PBS solution for 15 minutes at room temperature. […] Before analysis samples were washed 2 times manually for 5 minutes in ICC base buffer.
Imaging is performed using Perkin Elmer Phenix Opera using a water 20× objective and recording 9 fields per well. Intensity readout at 488 nm is used as a measure of O-GlcNAcylation level of total proteins in wells. To assess potential toxicity of compounds nuclei were counted using the Hoechst staining. IC50-values are calculated using parametric non-linear regression model fitting. As a maximum inhibition Thiamet G at a 200 uM concentration is present on each plate. In addition, a concentration response of Thiamet G is calculated on each plate.

[1] = biological target: T2, recombinant human Meningioma Expressed Antigen 5 (MGEA5), also referred to as O-GlcNAcase (OGA) (Homo sapiens, UniProt O60502); assay: OGA biochemical assay (inhibition of FM-GlcNAc hydrolysis, fluorescence); conditions: FM-GlcNAc substrate; for IC50: read-out: Enzymatic hOGA, pIC50 (converted); for Emax / Enzymatic Emax (%): maximal effect; for Emax: read-out: Enzymatic Emax (%)
T2 construct: Full length OGA enzyme was purchased at OriGene (cat #TP322411); purchased OriGene TP322411
T2 sequence (O60502 1-916): T1 sequence (O60502 1-916)
Method in brief: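 Full-length OGA (2 nM) pre-incubated 60 min at room temperature with compound, then FM-GlcNAc (100 uM final) hydrolysed 6 h at room temperature in 200 mM citrate/phosphate pH 7.2 with 0.005% Tween-20. Stopped with carbonate pH 11.0; fluorescein read at ex 485/em 538 nm. IC50 and Hill coefficient from curve fit between no-inhibitor and saturating-standard controls.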

Row | SMILES | EC50 (OGA) [nM] | Cellular Emax (%) (OGA) | IC50 ([1]; 6 h at room temperature) [nM] | Emax [1] [%] | Enzymatic Emax (%) [1] [%] | Emax (OGA) [%] | Enzymatic hOGA; pIC50 ([1]; 6 h at room temperature)
1 | Cc1cc(C[C@@H]2CCN(C(C)c3nc4nc(C)sc4cc3F)C2)cc(C)n1 (single isomer, unassigned) [Compound 93] | 39.8 | 91 | 3.16 | 92 | – | – | –
2 | Cc1cc(C[C@@H]2CCN(C(C)c3nc4nc(C)sc4cc3F)C2)cc(C)n1 (single isomer, unassigned) [Compound 94] | > 1000 | 2 | 1580 | – | 76 | – | –
3 | COc1cc(C[C@@H]2CCN(C(C)c3ccc4sc(C)nc4n3)C2)cc(C)n1 (single isomer, unassigned) [Compound 97] | > 1000 | – | 6310 | 56 | – | -2 | –
4 | Cc1cc(CO[C@H]2CCCN(C(C)c3cc4nc(C)sc4cc3F)C2)cc(C)n1 (single isomer, unassigned) [Compound 100] | > 1000 | −6 | 1260 | 92 | – | – | –
5 | Cc1cc(CO[C@H]2CCCN(C(C)c3cc4nc(C)sc4cc3F)C2)cc(C)n1 (single isomer, unassigned) [Compound 101] | 50.1 | 73 | 3.98 | – | 98 | – | –
6 | Cc1cc(NCC2CCCN(C(C)c3ccc4sc(C)nc4n3)C2)cc(C)n1 (single isomer, unassigned) [Compound 106] | 6.31 | – | 5.01 | 99 | – | 92 | –
7 | Cc1cc(C[C@H]2CCCN(Cc3ccc4[nH]c(C)nc4n3)C2)cc(C)n1 [Compound 9] | 631 | – | 200 | 96 | – | 59 | –
8 | Cc1cc(C[C@H]2CCCN([C@H](C)c3ccc4oc(C)nc4n3)C2)cc(C(F)(F)F)n1 [Compound 24a] | 39.8 | – | 7.94 | 99 | – | 81 | –
9 | Cc1cc(C[C@H]2CCCN([C@H](C)c3ccc4oc(C)nc4n3)C2)cc(OC(F)(F)F)n1 [Compound 25a] | 50.1 | – | 3.98 | 101 | – | 85 | –
10 | Cc1cc(C[C@H]2CCCN(Cc3cnc4nc(C)oc4c3)C2)cc(C)n1 [Compound 37] | > 1000 | – | 7940 | 55 | – | 2 | –
11 | Cc1cc(OC2CCCN(C(C)c3ccc4sc(C)nc4n3)C2)cc(C)n1 (centres unmarked) [Compound 40] | 794 | – | 12.6 | 99 | – | 49 | –
12 | Cc1cc(OC[C@H]2CCCN([C@@H](C)c3ccc4sc(C)nc4n3)C2)nc(C)n1 [Compound 49a] | > 1000 | – | 2000 | 84 | – | -2 | –
13 | Cc1cc(OC[C@H]2CCCN([C@H](C)c3ccc4sc(C)nc4n3)C2)nc(C)n1 [Compound 49b] | 31.6 | – | 6.31 | 99 | – | 70 | –
14 | Cc1cc(C[C@@H]2CCN([C@H](C)c3cc4nc(C)sc4cc3F)C2)cc(C)n1 [Compound 59] | > 1000 | – | 200 | 98 | – | 11 | –
15 | Cc1cc(C[C@@H]2CCN([C@@H](C)c3cc4nc(C)sc4cc3F)C2)cc(C)n1 [Compound 60] | 63.1 | – | 2 | 99 | – | 66 | –
16 | Cc1cc(C[C@H]2CCN(C(C)c3cnc4nc(C)oc4c3)C2)cc(C)n1 (some centres unmarked) [Compound 63] | 158 | – | 100 | 103 | – | 77 | –
17 | Cc1cc(CO[C@H]2CCCN(C(C)c3ccc4sc(C)nc4n3)C2)cc(C)n1 (some centres unmarked) [Compound 66] | 501 | – | 39.8 | 100 | – | 55 | –
18 | Cc1cc(CO[C@@H]2CCCN(C(C)c3ccc4sc(C)nc4n3)C2)cc(C)n1 (some centres unmarked) [Compound 68] | > 1000 | – | 126 | 98 | – | 27 | –
19 | Cc1cc(C)nc(CO[C@@H]2CCN(C(C)c3ccc4sc(C)nc4n3)C2)c1 (some centres unmarked) [Compound 80] | > 1000 | – | 2000 | 85 | – | 5 | –
20 | Cc1cc([C@H]2CCCN(C(C)c3nc4nc(C)[nH]c4cc3F)C2)cc(C)n1 (some centres unmarked) [Compound 82] | > 1000 | – | 126 | 97 | – | 39 | –
21 | COc1cc(N[C@H]2CCCN(C(C)c3ccc4sc(C)nc4n3)C2)cc(C)n1 (some centres unmarked) [Compound 83] | 102 | – | 10 | 96 | – | 78 | –
22 | Cc1cc(CN[C@H]2CCCN(C(C)c3ccc4sc(C)nc4n3)C2)cc(C)n1 (some centres unmarked) [Compound 84] | 501 | – | 25.1 | 98 | – | 66 | –
23 | Cc1cc(O[C@@H]2CCN(C(C)c3cc4nc(C)sc4cc3F)C2)cc(C)n1 (some centres unmarked) [Compound 88] | 251 | – | 3.16 | 99 | – | 66 | –
24 | Cc1cc(C2CCCN(C(C)c3cc4nc(C)sc4cc3F)C2)cc(C)n1 (centres unmarked) [Compound 89] | 15.8 | – | 6.31 | 102 | – | 64 | –
25 | Cc1cc(C2CCCN(C(C)c3cc4nc(C)sc4cc3F)C2)cc(C)n1 (centres unmarked) [Compound 90] | 31.6 | 84 | – | – | 101 | – | 8.2
26 | Cc1cc(OC[C@H]2CCCN(C(C)c3nc4nc(C)sc4cc3F)C2)cc(C)n1 (some centres unmarked) [Compound 91] | 7.94 | – | 3.98 | 101 | – | 66 | –
27 | Cc1cc(O[C@@H]2CCN(C(C)c3nc4nc(C)sc4cc3F)C2)cc(C)n1 (some centres unmarked) [Compound 92] | > 1000 | – | 39.8 | 99 | – | 28 | –
28 | Cc1cc(OC[C@H]2CCCN(C(C)c3cc4nc(C)sc4cc3F)C2)cc(C)n1 (some centres unmarked) [Compound 98] | 12.6 | – | 2.51 | 102 | – | 60 | –
29 | Cc1cc(C[C@H]2CCN(C(C)c3cnc4[nH]c(C)nc4c3)C2)cc(C)n1 (some centres unmarked) [Compound 102] | > 1000 | – | 398 | 96 | – | 32 | –
